The target of one assay is T1, RORγ-LBD (Homo sapiens, UniProt P51449).
T1 construct: made in house; host or cells: SF9 cells (baculovirus)
T1 sequence (P51449 269-508 limits assumed): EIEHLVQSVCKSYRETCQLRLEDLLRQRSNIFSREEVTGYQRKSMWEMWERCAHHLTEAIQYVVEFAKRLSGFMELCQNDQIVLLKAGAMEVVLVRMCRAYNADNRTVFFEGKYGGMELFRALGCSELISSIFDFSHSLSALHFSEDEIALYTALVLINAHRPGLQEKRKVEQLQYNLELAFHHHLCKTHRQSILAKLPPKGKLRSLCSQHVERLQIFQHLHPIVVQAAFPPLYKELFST
The experiment in a line: RORγ-Ligand Binding Domain (LBD) TR-FRET Assay.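 For TR-FRET Assay Max Response: 665/615 nm ratio relative to signal without ursolic acid or compound set at 100.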 The assay is classed as biochemical. In a few lines: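 TR-FRET read-out using a biotin-tagged SRC1 coactivator LXXLL peptide (200 nM final), with the antagonist ursolic acid present at 2 μM final. Receptor is His-tagged LBD expressed in SF9 cells, ~3 nM final in pH 7.0 Tris/KCl/EDTA/DTT/BSA buffer; compounds in 1% DMSO final.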
On the technique in general: Time-resolved FRET reads energy transfer from a long-lived donor to a nearby acceptor.

In a further assay the target is T2, Gal4-RORγ-LBD (Homo sapiens, UniProt P51449).
T2 construct: expressed in transfected cells; host or cells: HEK-293 cells (pcDNA3.1neo plasmid)
T2 sequence (P51449 269-508 limits assumed): T1 sequence (P51449 269-508 limits assumed)
The experiment in a line: Gal4-RORγ Luciferase Reporter Assay in HEK-293T Cells. The assay is classed as cell-based. Particulars: HEK-293 cells. In a few lines:
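Luminescence read-out (One-Glo, 10 min RT) after overnight compound exposure at 37 °C in HEK-293 cells carrying Gal4-RORγ-LBD plus a Gal4-luciferase reporter, in the presence of 2 μM ursolic acid. Max Response is the upper plateau from a 4-parameter logistic fit, normalized to untreated signal = 100.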

Where [1] appears, read: luciferase reporter, with 2 μM ursolic acid.

Where only a bound is given, the exact number is not on record here.

Take `NS(=O)(=O)CCC(=O)NC[C@H]1CN(S(=O)(=O)c2cccc(C(F)(F)F)c2)c2cc(-c3cc(F)cc(OC(F)F)c3)ccc2O1` [Compound 30DA, (S)-N-((6-(3-(difluoromethoxy)-5-fluorophenyl)-4-((3-(trifluoro-methyl)phenyl)sulfonyl)-3,4-dihydro-2H-benzo[b][1,4]-oxazin-2-yl)methyl)-3-sulfamoylpropanamide]: at RORγ-LBD, the EC50 – broadly, the concentration at which the effect is half-maximal – was less than 500 nM and the “TR-FRET Assay Max Response” value is “*** (The symbol “***” indicates a value in the range of greater than 150 to 200)”. Further, on Gal4-RORγ-LBD (2 μM ursolic acid), the EC50 was 500 to 5000 nM and the “Gal4-RORγ Assay Max Response” value is on record as “* (The symbol “*” indicates a value in the range of 25 to 90)”.
The corresponding values for `CC(=O)NC(C)(C)C[C@@H]1CN(S(=O)(=O)c2cccc(C(F)(F)F)c2)c2cc(-c3cc(F)ccc3F)ccc2O1` [Compound 30DC, (R)-N-(1-(6-(2,5-difluoro-phenyl)-4-((3-(trifluoromethyl)-phenyl)sulfonyl)-3,4-dihydro-2H-benzo[b][1,4]oxazin-2-yl)-2-methylpropan-2-yl)acetamide] are less than 500 nM, “*** (The symbol “***” indicates a value in the range of greater than 150 to 200)”, 500 to 5000 nM and “* (The symbol “*” indicates a value in the range of 25 to 90)”.
Turning to `CC(C)(C[C@H]1CN(S(=O)(=O)c2cccc(C(F)(F)F)c2)c2cc(-c3cc(F)ccc3F)ccc2O1)NS(C)(=O)=O` [Compound 30DE, (S)-N-(1-(6-(2,5-difluoro-phenyl)-4-((3-(trifluoromethyl)-phenyl)sulfonyl)-3,4-dihydro-2H-benzo[b][1,4]oxazin-2-yl)-2-methylpropan-2-yl)methane-sulfonamide], at RORγ-LBD, the EC50 was less than 500 nM and the “TR-FRET Assay Max Response” value is “*** (The symbol “***” indicates a value in the range of greater than 150 to 200)”. Also, on Gal4-RORγ-LBD (2 μM ursolic acid), the EC50 was less than 500 nM and the “Gal4-RORγ Assay Max Response” value is reported as “* (The symbol “*” indicates a value in the range of 25 to 90)”.
As for `CC(C)(F)C(=O)NC[C@H]1CN(S(=O)(=O)c2cccc(C(F)(F)F)c2)c2cc(-c3cc(F)cc(OC(F)F)c3)ccc2O1` [Compound 30DG, (S)-N-((6-(3-(difluoromethoxy)-5-fluorophenyl)-4-((3-(trifluoro-methyl)phenyl)sulfonyl)-3,4-dihydro-2H-benzo[b][1,4]-oxazin-2-yl)methyl)-2-fluoro-2-methylpropanamide], at RORγ-LBD, the EC50 is less than 500 nM and the “TR-FRET Assay Max Response” value is “*** (The symbol “***” indicates a value in the range of greater than 150 to 200)”. For the same compound, at Gal4-RORγ-LBD (2 μM ursolic acid), the EC50 lay in the range of 500 to 5000 nM and the “Gal4-RORγ Assay Max Response” value is “* (The symbol “*” indicates a value in the range of 25 to 90)”.
The corresponding values for `CC(C)(CO)C(=O)NC[C@H]1CN(S(=O)(=O)c2cccc(C(F)(F)F)c2)c2cc(-c3cc(F)cc(OC(F)F)c3)ccc2O1` [Compound 30DH, (S)-N-((6-(3-(difluoromethoxy)-5-fluorophenyl)-4-((3-(trifluoro-methyl)phenyl)sulfonyl)-3,4-dihydro-2H-benzo[b][1,4]-oxazin-2-yl)methyl)-3-hydroxy-2,2-dimethylpropanamide] are less than 500 nM, “*** (The symbol “***” indicates a value in the range of greater than 150 to 200)”, less than 500 nM and “* (The symbol “*” indicates a value in the range of 25 to 90)”.
The corresponding values for `C=CCC(=O)NC[C@H]1CN(S(=O)(=O)c2cccc(C(F)(F)F)c2)c2cc(-c3cc(F)cc(OC(F)F)c3)ccc2O1` [Compound 30DI, (S)-N-((6-(3-(difluoromethoxy)-5-fluorophenyl)-4-((3-(trifluoro-methyl)phenyl)sulfonyl)-3,4-dihydro-2H-benzo[b][1,4]-oxazin-2-yl)methyl)but-3-enamide] are less than 500 nM, “*** (The symbol “***” indicates a value in the range of greater than 150 to 200)”, less than 500 nM and “* (The symbol “*” indicates a value in the range of 25 to 90)”.
The corresponding values for `O=C(NC[C@H]1CN(S(=O)(=O)c2cccc(C(F)(F)F)c2)c2cc(-c3cc(F)cc(OC(F)F)c3)ccc2O1)C1(F)CC1` [Compound 30DJ, (S)-N-((6-(3-(difluoromethoxy)-5-fluorophenyl)-4-((3-(trifluoro-methyl)phenyl)sulfonyl)-3,4-dihydro-2H-benzo[b][1,4]-oxazin-2-yl)methyl)-1-fluorocyclopropane-1-carboxamide] are less than 500 nM, “*** (The symbol “***” indicates a value in the range of greater than 150 to 200)”, 500 to 5000 nM and “* (The symbol “*” indicates a value in the range of 25 to 90)”.
In the case of `COc1cccc(-c2ccc3c(c2)N(S(=O)(=O)c2cccc(C(F)(F)F)c2)C[C@H](CCNC(=O)C(C)(C)O)O3)c1` [Compound 30E, (S)-2-hydroxy-N-(2-(6-(3-methoxyphenyl)-4-((3-(trifluoromethyl)phenyl)sulfonyl)-3,4-dihydro-2H-benzo[6][1,4]oxazin-2-yl)ethyl)-2-methylpropanamide], at RORγ-LBD, the EC50 is less than 500 nM and the “TR-FRET Assay Max Response” value is “**** (The symbol “****” indicates a value greater than 200)”. At Gal4-RORγ-LBD (setting [1]), the EC50 is less than 500 nM and the “Gal4-RORγ Assay Max Response” value is reported as “** (The symbol “**” indicates a value in the range of greater than 90 to 150)”.
Consider `COc1cc(F)cc(-c2ccc3c(c2)N(S(=O)(=O)c2cccc(C(F)(F)F)c2)C[C@H](CCNC(=O)C(C)(C)O)O3)c1F` [Compound 30F, (S)-N-(2-(6-(2,5-difluoro-3-methoxyphenyl)-4-((3-(trifluoromethyl)phenyl)sulfonyl)-3,4-dihydro-2H-benzo[b][1,4]oxazin-2-yl)ethyl)-2-hydroxy-2-methylpropanamide], for which, at RORγ-LBD, the EC50 is less than 500 nM and the “TR-FRET Assay Max Response” value is recorded as “**** (The symbol “****” indicates a value greater than 200)”. At Gal4-RORγ-LBD (setting [1]), the EC50 is less than 500 nM and the “Gal4-RORγ Assay Max Response” value was “* (The symbol “*” indicates a value in the range of 25 to 90)”.
`CC(C)c1cccc(S(=O)(=O)N2C[C@H](CCNC(=O)C(C)(C)O)Oc3ccc(-c4cccc(N(C)C)n4)cc32)c1` [Compound 30G, (S)-N-(2-(6-(6-(dimethylamino)-pyridin-2-yl)-4-((3-isopropyl-phenyl)sulfonyl)-3.,4-dihydro-2H-benzo[b][1,4]oxazin-2-yl)ethyl)-2-hydroxy-2-methylpropanamide]: at RORγ-LBD, the EC50 was less than 500 nM and the “TR-FRET Assay Max Response” value was “**** (The symbol “****” indicates a value greater than 200)”. Further, at Gal4-RORγ-LBD (setting [1]), the EC50 is less than 500 nM and the “Gal4-RORγ Assay Max Response” value was “* (The symbol “*” indicates a value in the range of 25 to 90)”.
With `CN(C)c1cccc(-c2ccc3c(c2)N(S(=O)(=O)c2cccc(C(F)(F)F)c2)C[C@H](CNC(=O)C(C)(C)O)O3)n1` [Compound 30H, (S)-N-((6-(6-(dimethylamino)-pyridin-2-yl)-4-((3-(trifluoromethyl)phenyl)sulfonyl)-3,4-dihydro-2H-benzo[b][1,4]oxazin-2-yl)methyl)-2-hydroxy-2-methylpropanamide], at RORγ-LBD, the EC50 is less than 500 nM and the “TR-FRET Assay Max Response” value is listed as “**** (The symbol “****” indicates a value greater than 200)”. Also, at Gal4-RORγ-LBD (setting [1]), the EC50 was less than 500 nM and the “Gal4-RORγ Assay Max Response” value is reported as “* (The symbol “*” indicates a value in the range of 25 to 90)”.

These data come from patent US10611740B2, “Aryl dihydro-2H-benzo[b][1,4]oxazine sulfonamide and related compounds for use as agonists of RORγ and the treatment of disease” (Lycera Corporation, priority 2015, dated 2020).
